Test results reported in patent US11999727B2 (Tango Therapeutics, Inc., priority 2020, dated 2024).

Assays:
[1] = target: T1, PRMT5 (Homo sapiens, UniProt O14744); experiment: PRMT5 biochemical IC50 assay with MTA as cofactor; settings: PRMT5, MTA as cofactor; read-out: MTA IC50
T1 construct: purchased Viva (custom protein)

[2] = tested on: HAP1 MTAP-intact cell line; experiment: SDMA in-cell western assay, HAP1 MTAP-intact; assay type: cell-based; settings: Homo sapiens, HAP1, SDMA in-cell western, HAP1 MTAP-intact; read-out: MTAP HAP1 intact IC50
Summary of the method: (§1)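 Compounds were tested in HAP1 cells differing only in MTAP status (endogenous expression versus null). Cellular SDMA levels were then measured by in-cell western, giving an IC50 in each background.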

[3] = tested on: HAP1 MTAP-deleted cell line; experiment: Viability assay, MTAP-deleted cell line; assay type: cell-based; settings: Homo sapiens, read-out: HAP1 MTAP deleted viability
From the text: Table 1 additionally indicates IC50 values in a viability assay for the MTAP-deleted cell line (column 10), indicating the effect of treatment with compound on cell survival.

[4] = target: T1, PRMT5; experiment: PRMT5 biochemical IC50 assay with SAM as cofactor; settings: PRMT5, SAM as cofactor; read-out: SAM IC50
[5] = tested on: HAP1 MTAP-deleted cell line; experiment: SDMA in-cell western assay, HAP1 MTAP-deleted; assay type: cell-based; settings: for IC50: Homo sapiens, HAP1, SDMA in-cell western, HAP1 MTAP-deleted; for MTAP intact/deleted ratio: IC50 ratio HAP1 MTAP-intact / HAP1 MTAP-deleted, SDMA in-cell western
Summary of the method: as §1

[6] = target: T1, PRMT5; experiment: PRMT5 biochemical IC50 assay with no cofactor; settings: PRMT5, no cofactor
From the text: Table 1 indicates IC50 values (μM) against PRMT5 for exemplary compounds in the presence of SAM as cofactor, with no cofactor, and with MTA as cofactor, respectively (columns 4-6). […] Ki values can be calculated from the IC50 values as described in the Examples section. As detailed in the Examples section, for the assay performed in the presence of SAM, IC50=Ki×1.5 (Ki=IC50/1.5).

[7] = HAP1, viability assay, MTAP-deleted cell line
[8] = read-out: HAP 1 MTAP deleted IC50
[9] = read-out: No Cofactor/ rel IC50

T1 sequence (O14744 whole entry): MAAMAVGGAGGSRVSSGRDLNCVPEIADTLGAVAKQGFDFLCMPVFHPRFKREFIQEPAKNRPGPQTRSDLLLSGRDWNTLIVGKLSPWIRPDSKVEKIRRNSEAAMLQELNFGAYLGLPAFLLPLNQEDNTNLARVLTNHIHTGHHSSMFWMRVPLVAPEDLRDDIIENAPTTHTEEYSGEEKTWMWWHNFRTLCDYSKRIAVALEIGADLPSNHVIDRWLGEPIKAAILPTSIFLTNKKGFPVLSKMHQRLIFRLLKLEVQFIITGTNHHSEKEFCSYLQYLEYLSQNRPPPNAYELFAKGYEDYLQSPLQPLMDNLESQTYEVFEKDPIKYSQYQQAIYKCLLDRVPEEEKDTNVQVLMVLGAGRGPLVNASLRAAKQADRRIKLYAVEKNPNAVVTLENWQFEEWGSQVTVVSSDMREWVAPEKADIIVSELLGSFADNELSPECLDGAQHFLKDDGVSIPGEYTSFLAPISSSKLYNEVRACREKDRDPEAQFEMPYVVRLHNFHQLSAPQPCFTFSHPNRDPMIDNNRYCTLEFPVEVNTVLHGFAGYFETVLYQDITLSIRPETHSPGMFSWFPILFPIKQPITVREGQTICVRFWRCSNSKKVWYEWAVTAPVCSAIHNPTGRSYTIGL
T1 sequence (Q9BQA1 whole entry partner): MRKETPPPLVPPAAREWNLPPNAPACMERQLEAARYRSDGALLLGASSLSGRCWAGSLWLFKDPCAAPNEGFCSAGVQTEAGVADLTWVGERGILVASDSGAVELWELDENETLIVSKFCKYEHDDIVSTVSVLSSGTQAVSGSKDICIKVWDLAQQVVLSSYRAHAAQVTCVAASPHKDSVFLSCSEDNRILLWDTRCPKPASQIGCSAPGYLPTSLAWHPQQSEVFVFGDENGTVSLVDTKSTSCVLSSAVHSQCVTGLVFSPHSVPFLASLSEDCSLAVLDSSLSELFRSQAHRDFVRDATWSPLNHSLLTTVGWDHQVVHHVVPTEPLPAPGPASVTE

Row | SMILES | IC50 [1] | IC50 [2] | IC50 [3, 7] | IC50 [4] | IC50 ([5]; read-out: HAP1 MTAP deleted IC50) | MTAP intact/deleted ratio [5] | IC50 ([6]; read-out: No Cofactor/rel IC50) | IC50 ([3]; HAP1, viability, HAP1 MTAP-deleted cell line) | IC50 [5, 8] | IC50 [6, 9]
1 | Cc1cc(NC(=O)C(=O)N2CC(C)CC(C)C2c2ccccc2)cnc1N (mixture of isomers) [Compound 314, N-(6-amino-5-methyl-3-pyridyl)-2-(3,5-dimethyl-2-phenyl-1-piperidyl)-2-oxo-acetamide] | 50 to 500 nM | > 1000 nM | 1000 to 10000 nM | > 500 nM | 100 to 1000 nM | A (an IC50 ratio greater than or equal to 10 fold) | 50 to 500 nM |  |  | 
2 | CCc1cc(NC(=O)C(=O)N2C[C@@H](C)CC[C@@H]2c2ccc3sc(CC(C)N(C)C)nc3c2)cnc1N (mixture of isomers) [Compound 1345, N-(6-amino-5-ethylpyridin-3-yl)-2-((2R,5S)-2-(2-(2-(dimethylamino)propyl)benzo[d]thiazol-5-yl)-5-methylpiperidin-1-yl)-2-oxoacetamide] | < 50 nM | < 100 nM |  | 50 to 500 nM |  | A (an IC50 ratio greater than or equal to 10 fold) |  | < 1000 nM | < 100 nM | < 50 nM
3 | Cc1cncc(NC(=O)C(=O)N2C[C@H](C)CC[C@H]2c2cccc(C)c2)c1 (racemic) [Compound 8, rac-2-[(2R,5S)-5-methyl-2-(m-tolyl)-1-piperidyl]-N-(5-methyl-3-pyridyl)-2-oxo-acetamide] | 50 to 500 nM | > 1000 nM | > 10000 nM | > 500 nM |  | C (an IC50 ratio of less than 3 fold) |  |  | > 1000 nM | > 500 nM
4 | Cc1cncc(NC(=O)C(=O)N2C[C@H](C)CC[C@H]2c2cccc(Cl)c2)c1 (racemic) [Compound 13, 2-[(2R,5S)-2-(3-chlorophenyl)-5-methyl-1-piperidyl]-N-(5-methyl-3-pyridyl)-2-oxo-acetamide] | 50 to 500 nM | > 1000 nM | > 10000 nM | > 500 nM |  | C (an IC50 ratio of less than 3 fold) |  |  | > 1000 nM | > 500 nM
5 | Cc1cncc(NC(=O)C(=O)N2C[C@H](C)CC[C@H]2c2ccnc(C)c2)c1 (racemic) [Compound 14, 2-[(2S,5R)-5-methyl-2-(2-methyl-4-pyridyl)-1-piperidyl]-N-(5-methyl-3-pyridyl)-2-oxo-acetamide] | 50 to 500 nM | > 1000 nM | > 10000 nM | 50 to 500 nM |  | C (an IC50 ratio of less than 3 fold) |  |  | > 1000 nM | > 500 nM
6 | COc1cccc([C@@H]2CC[C@@H](C)CN2C(=O)C(=O)Nc2cncc(C)c2)c1 (racemic) [Compound 28, rac-2-((2R,5S)-2-(3-methoxyphenyl)-5-methylpiperidin-1-yl)-N-(5-methylpyridin-3-yl)-2-oxoacetamide] | 50 to 500 nM | > 1000 nM | > 10000 nM | 50 to 500 nM |  | C (an IC50 ratio of less than 3 fold) |  |  | > 1000 nM | 50 to 500 nM
7 | Cc1cccc(C2CCCCN2C(=O)C(=O)Nc2cnc(N)c(C)c2)c1 (racemic) [Compound 31, N-(6-Amino-5-methyl-3-pyridyl)-2-[2-(m-tolyl)-1-piperidyl]-2-oxo-acetamide] | < 50 nM | > 1000 nM | > 10000 nM | 50 to 500 nM |  | A (an IC50 ratio greater than or equal to 10 fold) |  |  | 100 to 1000 nM | 50 to 500 nM
8 | Cc1cc(NC(=O)C(=O)N2CCCCC2c2ccncc2)cnc1N (racemic) [Compound 36, N-(6-Amino-5-methyl-3-pyridyl)-2-oxo-2-[2-(4-pyridyl)-1-piperidyl]acetamide] | < 50 nM | > 1000 nM | > 10000 nM | 50 to 500 nM |  | A (an IC50 ratio greater than or equal to 10 fold) |  |  | 100 to 1000 nM | 50 to 500 nM
9 | CNC(=O)c1cccc([C@H]2CC[C@H](C)CN2C(=O)C(=O)Nc2cncc(C)c2)c1 (racemic) [Compound 48, N-methyl-3-[(2R,5S)-5-methyl-1-[2-[(5-methyl-3-pyridyl)amino]-2-oxo-acetyl]-2-piperidyl]benzamide] | 50 to 500 nM | > 1000 nM | > 10000 nM | 50 to 500 nM |  | C (an IC50 ratio of less than 3 fold) |  |  | > 1000 nM | 50 to 500 nM
10 | Cc1cc(NC(=O)C(=O)N2CCCCC2c2ccccc2)cnc1N (racemic) [Compound 53, N-(6-Amino-5-methyl-3-pyridyl)-2-oxo-2-(2-phenyl-1-piperidyl)acetamide] | < 50 nM | > 1000 nM | > 10000 nM | 50 to 500 nM |  | A (an IC50 ratio greater than or equal to 10 fold) |  |  | 100 to 1000 nM | 50 to 500 nM
11 | Cc1cc(NC(=O)C(=O)N2CC(C)(C)CCC2c2ccccc2)cnc1N (racemic) [Compound 56, N-(6-amino-5-methylpyridin-3-yl)-2-(5,5-dimethyl-2-phenylpiperidin-1-yl)-2-oxoacetamide] | 50 to 500 nM | 100 to 1000 nM | 1000 to 10000 nM | 50 to 500 nM |  | B (an IC50 ratio greater than or equal to 3 fold but lower than 10 fold) |  |  | < 100 nM | 50 to 500 nM
12 | Cc1cncc(NC(=O)C(=O)N2C[C@@H](C)CC[C@@H]2c2cccs2)c1 (racemic) [Compound 60, rac-2-((2R,5S)-5-methyl-2-(thiophen-2-yl)piperidin-1-yl)-N-(5-methylpyridin-3-yl)-2-oxoacetamide] | 50 to 500 nM | > 1000 nM | > 10000 nM | > 500 nM |  | C (an IC50 ratio of less than 3 fold) |  |  | > 1000 nM | > 500 nM
13 | Cc1cc(NC(=O)C(=O)N2C[C@H](C)CC[C@@H]2c2ccnn2C)cnc1N (racemic) [Compound 66, rac-N-(6-amino-5-methylpyridin-3-yl)-2-((2R,5R)-5-methyl-2-(1-methyl-1H-pyrazol-5-yl)piperidin-1-yl)-2-oxoacetamide] | < 50 nM | > 1000 nM | > 10000 nM | 50 to 500 nM |  | A (an IC50 ratio greater than or equal to 10 fold) |  |  | 100 to 1000 nM | 50 to 500 nM
14 | Cc1cncc(NC(=O)C(=O)N2C[C@H](C)CC[C@H]2c2cccc(F)c2)c1 (racemic) [Compound 70, rac-2-[(2S,5R)-2-(3-fluorophenyl)-5-methyl-1-piperidyl]-N-(5-methyl-3-pyridyl)-2-oxo-acetamide] | 50 to 500 nM | > 1000 nM | > 10000 nM | > 500 nM |  | C (an IC50 ratio of less than 3 fold) |  |  | > 1000 nM | > 500 nM
15 | C[C@@H]1CC[C@H](c2ccnn2C)N(C(=O)C(=O)Nc2cncc(C(N)=O)c2)C1 (racemic) [Compound 72, 5-(2-(5-methyl-2-(1-methyl-1H-pyrazol-5-yl)piperidin-1-yl)-2-oxoacetamido)nicotinamide] | 50 to 500 nM | > 1000 nM | > 10000 nM | 50 to 500 nM |  | A (an IC50 ratio greater than or equal to 10 fold) |  |  | 100 to 1000 nM | 50 to 500 nM
16 | NC(=O)c1cncc(NC(=O)C(=O)N2C[C@@H]3CC[C@@H](C3)[C@@H]2c2cccs2)c1 (racemic) [Compound 79, 5-[[2-oxo-2-[(1S,4S,5R)-4-(2-thienyl)-3-azabicyclo[3.2.1]octan-3-yl]acetyl]amino]pyridine-3-carboxamide] | 50 to 500 nM | > 1000 nM | > 10000 nM | 50 to 500 nM |  | A (an IC50 ratio greater than or equal to 10 fold) |  |  | 100 to 1000 nM | > 500 nM
17 | Cc1cncc(NC(=O)C(=O)N2C[C@H](C)CC[C@H]2c2ccc3c(c2)CCCC3)c1 (racemic) [Compound 80, N-(5-methyl-3-pyridyl)-2-[(2S,5R)-5-methyl-2-tetralin-6-yl-1-piperidyl]-2-oxo-acetamide] | 50 to 500 nM | > 1000 nM | > 10000 nM | > 500 nM |  | C (an IC50 ratio of less than 3 fold) |  |  | > 1000 nM | > 500 nM
18 | C[C@@H]1CC[C@@H](c2ccnn2C)N(C(=O)C(=O)Nc2cncc(C(N)=O)c2)C1 (racemic) [Compound 81, 5-(2-(5-methyl-2-(1-methyl-1H-pyrazol-5-yl)piperidin-1-yl)-2-oxoacetamido)nicotinamide] | 50 to 500 nM | > 1000 nM | > 10000 nM | > 500 nM |  | A (an IC50 ratio greater than or equal to 10 fold) |  |  | 100 to 1000 nM | > 500 nM
